Experimental findings from ChEMBL document CHEMBL1154250, “Isolation and characterization of peptides from Momordica cochinchinensis seeds” (J Nat Prod, 2009) are described below.

SMILES strings stand for the structures. Activity calls are given as the source filed them. The rule behind the calls is not given here. Positions of bridges follow the written chain, without caps; N, C: chain ends. Residues, ends and D or L forms follow the SMILES beside them.

One data set relates to Helicoverpa armigera. In words: Insecticidal activity against Helicoverpa armigera larvae assessed as decrease in weight at 0.825 umol after 96 hrs. The format is functional, organism-based.
A short description of data set [1]: Inhibition of trypsin at 0.04 to 0.5 uM by UV-visible spectrophotometer.
The test system of data set [2] is MM96L. In words: Cytotoxicity against human MM96L cells assessed as survivality at 1.3 uM after 3 days by SRB assay. Conditions: 72 h, read-out: Survival. The format is functional. On the technique in general: Sulforhodamine B stains cellular protein and so reports cell mass.
Data set [3] is described as follows: Cytotoxicity against human NFF cells assessed as survivality at 1.3 uM after 3 days by SRB assay. It is filed as cell-based. Conditions: read-out: Survival.
Data set [4] relates to MM96L. In words: Cytotoxicity against human MM96L cells assessed as survivality at 2 uM after 3 days by SRB assay. It is filed as functional. Conditions: 72 h, read-out: Survival.
The nature of data set [5]: Cytotoxicity against human NFF cells assessed as survivality at 2 uM after 3 days by SRB assay. The following applies: read-out: Survival. The format is cell-based.
Data set [6] in a line: Toxicity in human erythrocytes assessed as hemolytic activity up to 50 uM after 1 hr. It is filed as cell-based. Conditions: erythrocyte.

On to `CC[C@H](C)[C@@H]1NC(=O)CNC(=O)[C@H](C(C)C)NC(=O)CNC(=O)[C@@H]2CCCN2C(=O)[C@H]([C@@H](C)O)NC(=O)[C@H](C(C)C)NC(=O)[C@H]([C@@H](C)O)NC(=O)[C@@H]2CCCN2C(=O)[C@H](Cc2c[nH]c3ccccc23)NC(=O)[C@@H]2CSSC[C@@H]3NC(=O)[C@H](CCC(N)=O)NC(=O)[C@H](CCCCN)NC(=O)CNC(=O)[C@H](CCC(=O)O)NC(=O)[C@@H](NC(=O)CN)CSSC[C@H](NC(=O)CNC(=O)CNC(=O)CNC(=O)[C@H](CSSC[C@H](C(=O)N[C@@H](CO)C(=O)N[C@@H](CO)C(=O)N[C@@H](CO)C(=O)O)NC1=O)NC(=O)[C@H](CO)NC(=O)[C@H](CCCNC(=N)N)NC(=O)[C@H](Cc1ccccc1)NC(=O)[C@H](CC(C)C)NC(=O)CNC3=O)C(=O)N[C@@H](CCCNC(=N)N)C(=O)N2`, for which the outcome in the data set with Helicoverpa armigera was inactive. In addition, in data set [1], the inhibition entry is “inactive”.

Take `CC[C@H](C)[C@@H]1NC(=O)CNC(=O)[C@H](C(C)C)NC(=O)CNC(=O)[C@@H]2CCCN2C(=O)[C@H]([C@@H](C)O)NC(=O)[C@H](C(C)C)NC(=O)[C@H]([C@@H](C)O)NC(=O)[C@@H]2CCCN2C(=O)[C@H](Cc2c[nH]c3ccccc23)NC(=O)[C@@H]2CSSC[C@@H]3NC(=O)[C@@H]4CCCN4C(=O)[C@H](CCCCN)NC(=O)CNC(=O)[C@H](CCC(=O)O)NC(=O)[C@@H](NC(=O)CN)CSSC[C@H](NC(=O)CNC(=O)CNC(=O)CNC(=O)[C@H](CSSC[C@@H](C(=O)N[C@@H](CO)C(=O)N[C@@H](CO)C(=O)N[C@@H](CO)C(=O)O)NC1=O)NC(=O)[C@H](CO)NC(=O)[C@H](CCCNC(=N)N)NC(=O)[C@H](Cc1ccccc1)NC(=O)[C@H](CC(C)C)NC(=O)CNC3=O)C(=O)N[C@@H](CCCNC(=N)N)C(=O)N2` (H-GCEGKPCGLFRSCGGGCRCWPTVTPGVGICSSS-OH; disulfide 2-17, 7-19, 13-30): the viability at 1.3 µM in the data set with MM96L [2] is 51%. Moreover, the viability at 72 h, 1.3 µM in data set [3] turned out to be 86%.

For the compound `CC[C@H](C)[C@@H]1NC(=O)CNC(=O)[C@H](C(C)C)NC(=O)CNC(=O)[C@@H]2CCCN2C(=O)[C@H]([C@@H](C)O)NC(=O)[C@H](C(C)C)NC(=O)[C@H]([C@@H](C)O)NC(=O)[C@@H]2CCCN2C(=O)[C@H](Cc2c[nH]c3ccccc23)NC(=O)[C@@H]2CSSC[C@@H]3NC(=O)[C@H](CCC(N)=O)NC(=O)[C@H](CCCCN)NC(=O)CNC(=O)[C@H](CCC(=O)O)NC(=O)[C@@H](NC(=O)CN)CSSC[C@H](NC(=O)CNC(=O)CNC(=O)CNC(=O)[C@H](CSSC[C@@H](C(=O)N[C@@H](CO)C(=O)N[C@@H](CO)C(=O)N[C@@H](CO)C(=O)O)NC1=O)NC(=O)[C@H](CO)NC(=O)[C@H](CCCNC(=N)N)NC(=O)[C@H](Cc1ccccc1)NC(=O)[C@H](CC(C)C)NC(=O)CNC3=O)C(=O)N[C@@H](CCCNC(=N)N)C(=O)N2` [listing 1 of 2 here], the viability at 2 µM with MM96L [4] turned out to be 57%.

With `CC[C@H](C)[C@@H]1NC(=O)CNC(=O)[C@H](C(C)C)NC(=O)CNC(=O)[C@@H]2CCCN2C(=O)[C@H]([C@@H](C)O)NC(=O)[C@H](C(C)C)NC(=O)[C@H]([C@@H](C)O)NC(=O)[C@@H]2CCCN2C(=O)[C@H](Cc2c[nH]c3ccccc23)NC(=O)[C@@H]2CSSC[C@@H]3NC(=O)[C@H](CCC(N)=O)NC(=O)[C@H](CCCCN)NC(=O)CNC(=O)[C@H](CCC(=O)O)NC(=O)[C@@H](NC(=O)CN)CSSC[C@H](NC(=O)CNC(=O)CNC(=O)CNC(=O)[C@H](CSSC[C@@H](C(=O)N[C@@H](CO)C(=O)N[C@@H](CO)C(=O)N[C@@H](CO)C(=O)O)NC1=O)NC(=O)[C@H](CO)NC(=O)[C@H](CCCNC(=N)N)NC(=O)[C@H](Cc1ccccc1)NC(=O)[C@H](CC(C)C)NC(=O)CNC3=O)C(=O)N[C@@H](CCCNC(=N)N)C(=O)N2` [listing 2 of 2 here], in data set [5], the viability at 72 h, 2 µM stood at 89%. For the same compound, the Activity entry in data set [6] is reported as “Non-toxic”.
